The text below walks through data of patent US9226495B2, “Disinfection aerosol, method of use and manufacture” (SABAN VENTURES PTY LIMITED, priority 2009, dated 2016).

Series [1] is described as follows: Hydrogen peroxide destruction in bulk solution in a tube, temperature rise as proxy. The series is classed as physicochemical. The note with it: antagonist concentrations of below 1×10^−4 M; 0.02M sodium hydroxide; FIG. 3.
Source text: Screening was initially conducted using bulk solutions combined in a tube, rather than as aerosols.
During destruction of hydrogen peroxide by Mn(II) or permanganate in tubes the temperature of the solution rather often reached boiling point. This should not happen when the biocide is sprayed as a mist due to absolutely different heat exchange conditions in bulk solution and in a thin layer of biocide. […] By lead time is meant the lag or induction period before the reaction velocity increases steeply.
For series [2] the following is noted: according OH&S requirements; of Mn; cited from earlier work.

In the case of `[K+].[O]=[Mn](=[O])(=[O])[O-]` [KMnO4], in series [1], the “time to peak rate of reaction with 35% peroxide” value is given as “about 10 mins”.
For the compound `[Mn]` [Mn], the permissible exposure limit in series [2] is on record as 5 mg/m^3.
